Read-outs that look alike come from different tables or passages of the source.
How the values were obtained:
recombinant LRRK2 kinase = biological target: T1, recombinant LRRK2 kinase (Homo sapiens, UniProt Q5S007); assay: LRRK2 kinase inhibition (Kinase-Glo luminescence); assay type: biochemical; conditions: IC50 grade; 25 μmol/L ATP, LRRKtide, 30° C. 2 hours; read-out: Enzyme activity LRRK2
T1 construct: purchased Signal Chem, Richmond, BC, Canada
Method: Upon completion of the reaction, an equal amount of Kinase-Glo (Promega, Madison, Wis.) solution was added thereto, followed by reaction for 40 minutes. A detection solution was added thereto, followed by further reaction at room temperature for 30 minutes. Then, IC50 of kinase was calculated by measuring the amount of luciferase using a microplate ELISA reader (Bio-Tek).

[1] = biological target: T2, kinases of the scanMAX Kinase assay panel (Homo sapiens, UniProt P53667); assay: Kinase selectivity, DiscoverX scanMAX Kinase assay panel (% control); assay type: binding; conditions: LIMK1; 1 uM
T2 construct: purchased DiscoverX Co. (contract measurement) scanMAX Kinase assay panel
T2 sequence (P53667 whole entry): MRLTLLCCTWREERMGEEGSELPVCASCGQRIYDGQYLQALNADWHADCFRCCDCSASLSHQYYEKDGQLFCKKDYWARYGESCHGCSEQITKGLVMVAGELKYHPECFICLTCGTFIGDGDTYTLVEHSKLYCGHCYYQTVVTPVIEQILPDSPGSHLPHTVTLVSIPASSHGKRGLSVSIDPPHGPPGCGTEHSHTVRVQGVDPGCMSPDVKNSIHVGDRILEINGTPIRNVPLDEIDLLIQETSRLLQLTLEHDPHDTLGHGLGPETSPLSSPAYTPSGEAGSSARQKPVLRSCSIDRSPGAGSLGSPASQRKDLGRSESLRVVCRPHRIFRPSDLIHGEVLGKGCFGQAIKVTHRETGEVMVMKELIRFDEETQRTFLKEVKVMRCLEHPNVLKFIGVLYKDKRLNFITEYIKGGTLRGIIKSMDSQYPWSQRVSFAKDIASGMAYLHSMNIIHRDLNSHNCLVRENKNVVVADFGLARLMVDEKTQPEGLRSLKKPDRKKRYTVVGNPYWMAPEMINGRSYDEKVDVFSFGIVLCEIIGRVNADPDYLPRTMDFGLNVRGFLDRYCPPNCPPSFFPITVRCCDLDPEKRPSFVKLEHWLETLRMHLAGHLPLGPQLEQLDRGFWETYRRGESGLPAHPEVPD
Outline: (§1)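 Percent of control computed as (compound − positive control)/(negative control − positive control) × 100, DMSO defining 100% and positive control 0%. Each panel kinase exposed to 1 uM compound; values under 35% taken to mean the compound acts on that kinase.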

[2] = biological target: T3, kinases of the scanMAX Kinase assay panel (Homo sapiens, UniProt Q15418); assay: as above; assay type: binding; conditions: 1 uM in DMSO
T3 construct: purchased DiscoverX Co. (contract measurement) scanMAX Kinase assay panel
T3 sequence (Q15418 whole entry): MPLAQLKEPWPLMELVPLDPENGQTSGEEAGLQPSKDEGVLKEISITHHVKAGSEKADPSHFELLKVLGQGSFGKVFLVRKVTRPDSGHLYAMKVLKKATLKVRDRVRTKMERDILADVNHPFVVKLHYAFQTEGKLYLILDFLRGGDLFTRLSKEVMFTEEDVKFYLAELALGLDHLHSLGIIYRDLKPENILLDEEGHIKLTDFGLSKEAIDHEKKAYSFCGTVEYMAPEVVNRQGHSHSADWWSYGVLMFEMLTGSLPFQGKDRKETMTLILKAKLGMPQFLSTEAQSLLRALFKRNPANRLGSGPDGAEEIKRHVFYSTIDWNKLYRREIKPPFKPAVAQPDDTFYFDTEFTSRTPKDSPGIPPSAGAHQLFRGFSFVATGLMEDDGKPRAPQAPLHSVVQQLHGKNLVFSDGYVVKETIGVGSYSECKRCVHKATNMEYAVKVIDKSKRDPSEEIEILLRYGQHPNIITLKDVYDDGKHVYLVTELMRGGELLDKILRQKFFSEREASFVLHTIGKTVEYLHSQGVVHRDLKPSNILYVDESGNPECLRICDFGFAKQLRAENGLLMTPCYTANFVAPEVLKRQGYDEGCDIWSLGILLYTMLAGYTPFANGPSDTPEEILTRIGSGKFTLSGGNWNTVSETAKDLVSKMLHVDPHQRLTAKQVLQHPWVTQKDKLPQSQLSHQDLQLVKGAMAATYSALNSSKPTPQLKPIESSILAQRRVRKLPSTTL
Outline: as §1

[3] = biological target: T4, kinases of the scanMAX Kinase assay panel (Homo sapiens, UniProt Q8IVH8); assay: as above; assay type: binding; conditions: MAP4K3; 1 uM
T4 construct: purchased DiscoverX Co. (contract measurement) scanMAX Kinase assay panel
T4 sequence (Q8IVH8 1-894): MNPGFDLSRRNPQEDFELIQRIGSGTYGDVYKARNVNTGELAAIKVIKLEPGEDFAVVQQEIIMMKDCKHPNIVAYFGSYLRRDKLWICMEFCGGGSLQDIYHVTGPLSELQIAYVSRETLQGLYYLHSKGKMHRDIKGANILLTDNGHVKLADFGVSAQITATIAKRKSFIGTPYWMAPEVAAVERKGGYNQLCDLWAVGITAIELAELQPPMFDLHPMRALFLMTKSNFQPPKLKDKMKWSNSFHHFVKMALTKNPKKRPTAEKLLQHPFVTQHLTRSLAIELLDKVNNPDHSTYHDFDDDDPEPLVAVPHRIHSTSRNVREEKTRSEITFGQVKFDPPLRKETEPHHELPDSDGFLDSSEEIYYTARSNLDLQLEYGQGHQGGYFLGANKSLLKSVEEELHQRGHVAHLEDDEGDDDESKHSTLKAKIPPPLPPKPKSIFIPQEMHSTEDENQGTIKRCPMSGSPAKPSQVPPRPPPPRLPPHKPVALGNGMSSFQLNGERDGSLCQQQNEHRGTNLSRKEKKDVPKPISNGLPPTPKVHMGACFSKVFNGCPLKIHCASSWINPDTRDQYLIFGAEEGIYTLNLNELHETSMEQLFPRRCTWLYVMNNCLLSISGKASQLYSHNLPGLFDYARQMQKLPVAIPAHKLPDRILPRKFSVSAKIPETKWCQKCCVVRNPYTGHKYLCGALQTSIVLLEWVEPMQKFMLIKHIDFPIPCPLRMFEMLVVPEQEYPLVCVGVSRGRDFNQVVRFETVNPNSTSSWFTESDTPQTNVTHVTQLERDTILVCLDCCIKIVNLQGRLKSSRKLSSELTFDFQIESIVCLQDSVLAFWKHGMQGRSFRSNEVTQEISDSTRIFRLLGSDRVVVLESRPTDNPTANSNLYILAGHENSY
Outline: as §1

[4] = kinase RSK1(Kin.Dom.1-N-terminal), read-out: % control, RSK1(Kin.Dom.1-N-terminal)
[5] = kinase RSK1(Kin.Dom.2-C-terminal), read-out: % control, RSK1(Kin.Dom.2-C-terminal)

T1 sequence (Q5S007 whole entry): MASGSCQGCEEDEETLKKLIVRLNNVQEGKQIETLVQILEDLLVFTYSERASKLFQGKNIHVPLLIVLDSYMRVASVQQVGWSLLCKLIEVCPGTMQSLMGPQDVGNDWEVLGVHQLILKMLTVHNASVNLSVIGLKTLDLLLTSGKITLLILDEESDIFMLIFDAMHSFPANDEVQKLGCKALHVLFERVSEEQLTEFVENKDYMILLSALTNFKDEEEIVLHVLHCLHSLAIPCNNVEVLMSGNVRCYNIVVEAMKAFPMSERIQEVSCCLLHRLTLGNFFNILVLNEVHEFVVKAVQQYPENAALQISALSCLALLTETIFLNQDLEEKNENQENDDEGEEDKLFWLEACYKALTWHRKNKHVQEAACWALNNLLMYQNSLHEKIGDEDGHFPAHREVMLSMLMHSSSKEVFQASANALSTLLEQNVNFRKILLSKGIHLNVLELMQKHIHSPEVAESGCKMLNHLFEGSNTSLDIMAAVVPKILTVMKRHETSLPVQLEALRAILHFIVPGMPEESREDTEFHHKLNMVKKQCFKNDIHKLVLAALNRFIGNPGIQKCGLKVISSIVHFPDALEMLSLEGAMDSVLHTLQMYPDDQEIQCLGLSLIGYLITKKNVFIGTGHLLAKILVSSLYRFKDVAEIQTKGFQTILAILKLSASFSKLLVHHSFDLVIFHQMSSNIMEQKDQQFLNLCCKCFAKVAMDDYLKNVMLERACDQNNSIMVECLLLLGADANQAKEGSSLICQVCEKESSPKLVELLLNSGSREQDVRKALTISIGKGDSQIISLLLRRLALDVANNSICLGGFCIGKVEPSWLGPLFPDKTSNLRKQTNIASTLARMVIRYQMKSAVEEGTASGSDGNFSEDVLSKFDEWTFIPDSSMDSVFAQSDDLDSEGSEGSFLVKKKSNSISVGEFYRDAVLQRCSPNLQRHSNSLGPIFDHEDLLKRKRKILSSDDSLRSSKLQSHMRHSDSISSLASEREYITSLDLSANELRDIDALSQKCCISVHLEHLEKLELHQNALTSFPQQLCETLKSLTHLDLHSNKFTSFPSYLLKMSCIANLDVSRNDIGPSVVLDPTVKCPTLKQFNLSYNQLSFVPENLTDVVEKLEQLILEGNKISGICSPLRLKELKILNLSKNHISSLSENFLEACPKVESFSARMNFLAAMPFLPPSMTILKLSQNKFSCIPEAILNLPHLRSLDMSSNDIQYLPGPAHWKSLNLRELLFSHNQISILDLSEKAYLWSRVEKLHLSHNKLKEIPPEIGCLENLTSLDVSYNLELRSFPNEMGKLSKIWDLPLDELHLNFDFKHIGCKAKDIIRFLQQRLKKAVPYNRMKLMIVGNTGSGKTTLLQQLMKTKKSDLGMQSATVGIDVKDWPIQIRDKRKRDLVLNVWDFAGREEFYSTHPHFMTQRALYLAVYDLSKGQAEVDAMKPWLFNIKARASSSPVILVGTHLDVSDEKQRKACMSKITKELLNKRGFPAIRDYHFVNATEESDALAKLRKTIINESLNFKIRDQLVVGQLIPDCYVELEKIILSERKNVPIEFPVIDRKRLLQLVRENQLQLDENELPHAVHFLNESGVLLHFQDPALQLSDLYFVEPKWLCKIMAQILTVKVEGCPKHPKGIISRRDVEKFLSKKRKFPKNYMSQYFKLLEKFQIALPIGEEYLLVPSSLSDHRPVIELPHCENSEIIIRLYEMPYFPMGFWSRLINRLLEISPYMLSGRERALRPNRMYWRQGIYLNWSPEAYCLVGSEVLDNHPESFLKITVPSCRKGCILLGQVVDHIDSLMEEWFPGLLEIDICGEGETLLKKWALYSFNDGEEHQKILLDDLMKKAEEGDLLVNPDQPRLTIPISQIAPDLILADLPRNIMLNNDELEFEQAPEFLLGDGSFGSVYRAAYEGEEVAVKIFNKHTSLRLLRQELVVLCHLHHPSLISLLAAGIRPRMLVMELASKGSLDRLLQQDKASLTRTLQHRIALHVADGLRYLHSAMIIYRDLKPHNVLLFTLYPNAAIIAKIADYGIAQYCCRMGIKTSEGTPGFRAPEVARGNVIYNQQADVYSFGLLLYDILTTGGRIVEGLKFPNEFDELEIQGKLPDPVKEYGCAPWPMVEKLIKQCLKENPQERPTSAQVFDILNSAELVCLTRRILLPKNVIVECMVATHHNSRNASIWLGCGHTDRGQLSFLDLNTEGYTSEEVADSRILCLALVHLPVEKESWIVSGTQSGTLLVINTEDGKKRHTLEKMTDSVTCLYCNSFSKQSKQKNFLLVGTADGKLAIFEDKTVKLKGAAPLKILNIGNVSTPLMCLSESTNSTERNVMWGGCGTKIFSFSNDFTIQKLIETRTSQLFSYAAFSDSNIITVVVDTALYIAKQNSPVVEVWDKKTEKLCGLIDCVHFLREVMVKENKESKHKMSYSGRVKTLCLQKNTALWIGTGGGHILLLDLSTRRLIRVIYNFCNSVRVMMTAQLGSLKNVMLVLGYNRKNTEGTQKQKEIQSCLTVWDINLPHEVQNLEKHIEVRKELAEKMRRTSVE

Compound: CNc1nc(Nc2ccc(C(=O)N3CCOCC3)cc2OC)nc2[nH]cc(C#N)c12 [Example 1, 2-((2-methoxy-4-(morpholine-4-carbonyl)phenyl)amino)-4-(methylamino)-7H-pyrrolo[2,3-d]pyrimidine-5-carbonitrile]
- IC50 (recombinant LRRK2 kinase): < 10 nM
- remaining binding at 1 µM [1]: 100%
- remaining binding at 1 µM [2, 4]: 98%
- remaining binding at 1 µM [2, 5]: 59%
- remaining binding at 1 µM [3]: 97%

Compound: CC1(Nc2nc(Nc3cnn([C@H]4CCN(C5COC5)C[C@@H]4F)c3Cl)nc3[nH]cc(C#N)c23)CC1 [Example 52, 2-((5-chloro-1-((3S,4S)-3-fluoro-1-(oxetane-3-yl)piperidine-4-yl)-1H-pyrazole-4-yl)amino)((1-methylcyclopropyl)amino)-7H-pyrrolo[2,3-d]pyrimidine-5-carbonitrile]
- IC50 (recombinant LRRK2 kinase): < 10 nM
- remaining binding at 1 µM [1]: 98%
- remaining binding at 1 µM [2, 4]: 2.4%
- remaining binding at 1 µM [2, 5]: 52%
- remaining binding at 1 µM [3]: 3.3%

Compound: CCNc1nc(Nc2ccc(C(=O)N3CCC(N4CCOCC4)CC3)cc2OC)nc2[nH]cc(C(F)(F)F)c12 [Example 104, (4-((4-(ethylamino)-5-(trifluoromethyl)-7H-pyrrolo[2,3-d]pyrimidine-2-yl)amino)-3-methoxyphenyl)(4-morpholinopiperidine-1-yl)methanone]
- IC50 (recombinant LRRK2 kinase): < 10 nM
- remaining binding at 1 µM [1]: 100%
- remaining binding at 1 µM [2, 4]: 89%
- remaining binding at 1 µM [2, 5]: 61%
- remaining binding at 1 µM [3]: 100%

— US11208412B2 (DAEGU-GYEONGBUK MEDICAL INNOVATION FOUNDATION, priority 2017, dated 2021)
